Assay [1] has as its system noradrenaline induced contractions in isolated rat portal vein. Description: Inhibition of noradrenaline induced contractions in isolated rat portal vein (Test 1). Particulars: 0.5 h, noradrenaline 3 μM, 30 min incubation, 37° C., pH 7.2, mean of at least two experiments. As to the method: Test 1: Inhibition of noradrenaline induced contractions in isolated rat portal vein.
Portal vein was extracted from adult male rats (b.w. 200-250 g), that had been stunned and exanguinated. Vein strips were suspended in an isolated organ bath (Letica) containing a physiological saline solution continuously bubbled with 5% CO2, 95% O2 gas at 37° C., pH 7.2. Contractions were induced by noradrenaline (3 μM) and were reverted after thorough washing with physiological saline solution. Portal vein contraction was measured with an isometric force transducer at an initial tension of 1 g. After two equal contractions with noradrenaline, performed in order to measure the tissue's basal response, the test compounds were incubated for 30 minutes and a new contraction was induced. The concentration that produces a 50% inhibition (IC50) versus the basal response was calculated. The experiment was repeated at least two times and the mean was calculated.

In assay [2] the test system is arterial pressure in conscious spontaneously hypertensive rats. Kind of assay: Lowering of the arterial pressure in conscious spontaneously hypertensive rats (Test 2). It counts as in vivo, rat. The following applies: conscious spontaneously hypertensive male rats, caudal artery, at least 4 animals. As to the method: Test 2: Lowering of the arterial pressure in conscious spontaneously hypertensive rats.
Spontaneously hypertensive male rats (b.w. 200-250 g) were used. Diastolic and systolic arterial pressure were measured at the caudal artery using a sphygnomanometer (Letica 5007 and 5007/4) attached to the animal's tail. To ensure rapid and reliable data, animals were placed on a heating plate at 37° C., with the aim of producing a vasodilatation that ensured better fixation of the rat tail to the transducer chamber. During the experiment, rats were conscious and fixed by a clamp. The test products were administered orally. Arterial pressure was measured every 60 minutes over a period of 4 hours and 10 minutes before the administration of the test compound. […]

Assay [3] has as its system isolated guinea pig tracheal spirals. Kind of assay: Direct relaxation of isolated guinea pig tracheal spirals (Test 3). Particulars: Cavia porcellus; 50% of maximum relaxation (isoproterenol 1×10^-6 M = maximum); isolated guinea pig tracheae; 37° C., pH 7.4; mean of at least two experiments. The method, then: Test 3 -Direct relaxation of isolated guinea pig tracheal spirals.
Tracheae were extracted from male guinea pigs of (b.w. 400 g) that had been stunned and exanguinated. Then, tracheae were cut in zigzag sections and placed in an isolated organ bath (Letica) containing Krebs-Henseleit solution at 37° C., pH 7.4, continuously bubbled with carbogen (95% O2 and 5% CO2). The relaxation of the tracheae was measured using an isometric force transducer. The basal tension was 0.5 g. The test compounds were cumulatively added to the bath and the effective concentration that produced 50% of the maximum relaxation (EC50) was calculated. The maximum relaxation was taken to be the relaxation induced by isoproterenol at 1×10^-6 M. The experiment was repeated at least two times and the mean was calculated.

Molecules are shown by their SMILES.

Usually IC50 stands for the point on the concentration scale where inhibition reaches its midpoint. Read a low IC50 as higher potency. What is called EC50 is the concentration at which the effect is half-maximal. Low values mean greater potency, high ones weaker potency. In assay [1], `CC1(C)C=C(c2cccc[n+]2[O-])c2cc(C#N)ccc2C1=O` [Compound 10, 1,2-Dihydro-2,2-dimethyl-4-(N-oxide-2-pyridyl)-1-oxonaphthalen-6-carbonitrile] displayed an IC50 of 900 nM. In assay [2] (0.1 mg/Kg p.o.), the “Pressure Drop ± SEM” value is reported as 53 ± 15 mm Hg. In assay [3], this compound displayed an EC50 of 200 nM.

In assay [1], `CC1(C)C=C(c2cccc[n+]2[O-])c2cc(Br)ccc2C1=O` [Compound 4, 6-Bromo-1,2-dihydro-2,2-dimethyl-4-(N-oxide-2-pyridyl)naphthalen-1-one] yielded an IC50 of 800 nM. In addition, the “Pressure Drop ± SEM” value in assay [2] (0.1 mg/Kg p.o.) was 53 ± 8 mm Hg. Moreover, it took 200 nM to reach a half-maximal effect in assay [3] (EC50).

Regarding `CC1(C)CC(c2cccc[n+]2[O-])c2cc(C#N)ccc2C1=O` (racemic) [Compound 12, (±)-2,2-Dimethyl-4-(N-oxide-2-pyridyl)-1-oxo-1,2,3,4-tetrahydronaphthalen-6-carbonitrile], the IC50 in assay [1] stood at 200 nM. Also, the “Pressure Drop ± SEM” value in assay [2] (1 mg/Kg p.o. (footnote *)) is on record as 95 ± 9 mm Hg. In assay [3], this compound came in with an EC50 of 3000 nM.

In assay [1], `CC1(C)C=C(c2cccc[n+]2[O-])c2cc(C(F)(F)C(F)(F)F)ccc2C1=O` [Compound 15, 1,2-Dihydro-2,2-dimethyl-4-(N-oxide-2-pyridyl)-6-pentafluoroethylnaphthalen-1-one] gave a half-inhibitory concentration (IC50) of 600 nM. Further, the “Pressure Drop ± SEM” value in assay [2] (0.1 mg/Kg p.o.) is 98 ± 20 mm Hg. The compound further came in with a 50% effective concentration (EC50) in assay [3] of 100 nM.

As for `CC1(C)C=C(c2cccc[n+]2[O-])c2cc(Cl)c(Cl)cc2C1=O` [Compound 18], inhibition in assay [1] was half-maximal at 500 nM (IC50). Also, the “Pressure Drop ± SEM” value in assay [2] (0.1 mg/Kg p.o.) stood at 74 ± 42 mm Hg. The same compound displayed a concentration giving a half-maximal response (EC50) in assay [3] of 200 nM.
